Values of other authors in patent US20230098686A1, “NERVE SPECIFIC FLUOROPHORE FORMULATIONS FOR DIRECT AND SYSTEMIC ADMINISTRATION” (OREGON HEALTH & SCIENCE UNIVERSITY, priority 2020, published 2023).

Test system: nerve tissue
Conditions: previous studies

CC/N=c1/cc2oc3cc(NCC)c(C)cc3nc-2cc1C [Oxazine 4]
nerve specificity: high nerve-specificity
